The results in this text go back to US6825199B2, “7-Substituted quinazolin-2,4-diones useful as antibacterial agents” (Warner-Lambert Company, priority 1997, dated 2004).

Usually pIC50 stands for the IC50 on a negative log10 scale, so that one unit is a factor of ten.

pIC50: −log10 of the molar value. ≈ marks a conversion by molar mass, not a printed value. Read-outs that look alike come from different tables or passages of the source.

For one series, the system named is B. subtilis RB1. The series is described as follows: Antibacterial assay, standard microtitration (MIC). The series is classed as cell-based. The settings on record: Bacillus subtilis, Gram positive, read-out: Minimum Inhibitory Concentrations B. subtilis RB1. As for the experimental part:
(§1) Antibacterial assay: The compounds of the present invention were tested against an assortment of Gram negative and Gram positive organisms using standard microtitration techniques (Cohen, et al., Antimicrob. Agents Chemother., 1985;28:766; Heifetz, et al., Antimicrob. Agents Chemother., 1974;6:124).

In the next series the test system is E. coli B90. The series is described as follows: Antibacterial assay, standard microtitration (MIC). It counts as cell-based. The settings on record: Escherichia coli, B90; Gram negative; read-out: Minimum Inhibitory Concentrations E. coli B90. As for the experimental part:
as §1

The subject of a further series is E. coli MC4100. Put plainly: Antibacterial assay, standard microtitration (MIC). The series is classed as cell-based. The settings on record: Escherichia coli, MC4100; Gram negative; read-out: Minimum Inhibitory Concentrations E. coli MC4100. Here is the method: as §1
Another series concerns E. coli Tol C. Put plainly: Antibacterial assay, standard microtitration (MIC). The series is classed as cell-based. The settings on record: Escherichia coli, read-out: Minimum Inhibitory Concentrations E. coli Tol C. As for the experimental part: as §1
Another series concerns S. aureus 29213. Put plainly: Antibacterial assay, standard microtitration (MIC). It counts as cell-based. The settings on record: Staphylococcus aureus, 29213; Gram positive; read-out: Minimum Inhibitory Concentrations S. aureus 29213. As for the experimental part: as §1
For the next series, the system named is S. pyogenes C203. Put plainly: Antibacterial assay, standard microtitration (MIC). It counts as cell-based. The settings on record: Streptococcus pyogenes, C203; Gram positive; read-out: Minimum Inhibitory Concentrations S. pyogenes C203. Here is the method:
as §1

The subject of series [1] is Chinese hamster V79 cells. The series is described as follows: Mammalian cell cytotoxicity, colony formation. It counts as cell-based. The settings on record: 3 hours drug treatment, colony formation after 5 days. Here is the method:
The cytotoxicity was determined in Chinese hamster V79 cells. The cells were grown overnight and treated with drug for 3 hours at 37° C., at which time the compound containing media was replaced with fresh media. The cells were then incubated for 5 days and examined for colony formation.

In a further series the target is T1, E. coli gyrase (Escherichia coli, UniProt P0AES4+P0AES6).
T1 construct: purchased Lucent, Ltd., Leicester, UK
T1 sequence (P0AES4 whole entry, one chain of several): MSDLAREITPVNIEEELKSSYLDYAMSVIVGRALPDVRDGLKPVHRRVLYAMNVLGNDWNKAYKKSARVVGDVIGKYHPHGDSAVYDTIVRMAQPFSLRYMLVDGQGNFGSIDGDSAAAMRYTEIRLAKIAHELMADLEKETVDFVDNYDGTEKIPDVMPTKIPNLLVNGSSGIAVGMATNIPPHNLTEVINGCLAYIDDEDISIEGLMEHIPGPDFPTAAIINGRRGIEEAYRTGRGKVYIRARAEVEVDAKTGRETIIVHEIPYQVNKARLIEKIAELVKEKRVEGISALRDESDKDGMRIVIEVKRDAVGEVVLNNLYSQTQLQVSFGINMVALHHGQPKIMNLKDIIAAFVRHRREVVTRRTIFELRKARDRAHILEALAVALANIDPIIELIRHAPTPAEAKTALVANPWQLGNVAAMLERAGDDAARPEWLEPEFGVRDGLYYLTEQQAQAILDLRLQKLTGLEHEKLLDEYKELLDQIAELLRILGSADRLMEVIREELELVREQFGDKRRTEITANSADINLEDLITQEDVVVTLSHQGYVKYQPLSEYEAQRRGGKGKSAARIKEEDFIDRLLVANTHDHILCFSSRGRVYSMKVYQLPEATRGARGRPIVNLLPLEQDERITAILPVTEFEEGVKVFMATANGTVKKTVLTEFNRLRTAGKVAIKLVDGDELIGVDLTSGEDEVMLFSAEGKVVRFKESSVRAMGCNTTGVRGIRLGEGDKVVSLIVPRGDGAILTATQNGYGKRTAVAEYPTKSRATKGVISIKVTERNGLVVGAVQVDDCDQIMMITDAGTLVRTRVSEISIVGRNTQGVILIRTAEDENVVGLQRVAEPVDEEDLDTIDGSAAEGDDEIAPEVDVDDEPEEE
The series is described as follows: DNA gyrase supercoiling inhibition assay. It counts as biochemical. As for the experimental part:
DNA gyrase assay: The effects of test agents on the activity of DNA gyrase was determined by the supercoiling inhibition assay, following reaction conditions recommended by the enzyme supplier (Lucent, Ltd., Leicester, UK), as follows. Reactions were performed in buffer G (35 mM Tris-HCl (pH 7.5), 24 mM KCl, 4 mM MgCl2, 2 mM DTT, 1.8 mM spermidine, 1 mM ATP, 0.1 mg/mL bovine serum albumin). 0.25 μg of relaxed plasmid pBR322 (Lucent, Ltd., Leicester, UK) was reacted with 1 U E. coli gyrase (Lucent, Ltd., Leicester, UK), in the absence or presence of drugs, for 30 minutes at 37° C. Reactions were stopped by the addition of SDS and proteinase K to respective final concentrations of 1% and 0.5 mg/mL. After an additional 30 minutes at 37° C., one-tenth volume of 10×loading buffer (0.3% bromophenol blue, 16% Ficoll, 10 mM Na2HPO4) was added, and reactions were loaded onto agarose gels and electrophoresed as described above for intercalation assays. The concentration of drug inhibiting 50% of the supercoiling activity of DNA gyrase is given as an IC50 and recorded in Table 2.

The next series deals with T2, E. coli Topoisomerase IV (Escherichia coli, UniProt P0AFI2+P20083).
T2 construct: made in house; host or cells: E. coli overexpressing strains
T2 sequence (P20083 whole entry): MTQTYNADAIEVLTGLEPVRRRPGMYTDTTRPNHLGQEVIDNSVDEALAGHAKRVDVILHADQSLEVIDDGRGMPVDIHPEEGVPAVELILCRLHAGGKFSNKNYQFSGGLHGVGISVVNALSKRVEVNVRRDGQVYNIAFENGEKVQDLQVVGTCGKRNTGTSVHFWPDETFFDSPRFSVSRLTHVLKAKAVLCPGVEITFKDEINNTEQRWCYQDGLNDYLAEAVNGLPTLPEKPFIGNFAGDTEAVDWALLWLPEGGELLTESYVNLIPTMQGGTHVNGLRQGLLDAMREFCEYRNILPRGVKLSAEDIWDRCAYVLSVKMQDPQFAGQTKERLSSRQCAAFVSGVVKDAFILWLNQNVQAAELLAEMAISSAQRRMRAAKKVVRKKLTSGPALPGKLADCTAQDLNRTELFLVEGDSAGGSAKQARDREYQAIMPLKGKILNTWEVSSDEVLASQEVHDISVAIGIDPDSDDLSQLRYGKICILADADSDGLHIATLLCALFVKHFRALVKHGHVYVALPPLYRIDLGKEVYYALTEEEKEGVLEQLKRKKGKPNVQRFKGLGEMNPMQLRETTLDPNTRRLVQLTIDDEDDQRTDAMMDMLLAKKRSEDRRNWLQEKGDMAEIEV
T2 sequence (P0AFI2 whole entry): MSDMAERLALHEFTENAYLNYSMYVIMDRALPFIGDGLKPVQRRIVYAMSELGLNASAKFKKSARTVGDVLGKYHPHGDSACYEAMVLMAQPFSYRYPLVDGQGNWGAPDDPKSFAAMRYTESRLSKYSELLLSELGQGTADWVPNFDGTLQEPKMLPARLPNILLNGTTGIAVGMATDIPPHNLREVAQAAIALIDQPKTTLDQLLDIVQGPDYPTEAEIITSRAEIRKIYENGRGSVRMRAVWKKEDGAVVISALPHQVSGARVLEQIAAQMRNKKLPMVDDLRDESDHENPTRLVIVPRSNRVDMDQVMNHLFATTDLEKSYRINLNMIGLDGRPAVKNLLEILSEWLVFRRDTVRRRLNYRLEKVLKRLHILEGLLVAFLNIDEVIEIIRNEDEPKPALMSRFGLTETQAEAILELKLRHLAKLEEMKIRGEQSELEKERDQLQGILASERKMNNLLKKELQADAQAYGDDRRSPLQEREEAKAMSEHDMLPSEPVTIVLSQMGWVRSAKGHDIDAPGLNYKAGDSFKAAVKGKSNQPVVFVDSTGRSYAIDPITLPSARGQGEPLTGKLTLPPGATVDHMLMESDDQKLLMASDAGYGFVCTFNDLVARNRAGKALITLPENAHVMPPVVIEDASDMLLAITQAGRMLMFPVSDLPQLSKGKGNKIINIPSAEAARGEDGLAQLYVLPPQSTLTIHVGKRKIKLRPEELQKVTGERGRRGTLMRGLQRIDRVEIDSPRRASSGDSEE
The series is described as follows: Topoisomerase IV k-DNA decatenation assay. It counts as biochemical. Here is the method:
Topoisomerase IV assay: Topoisomerase IV was purified from E. coli overexpressing strains, and the compounds were assayed according to literature conditions (Journal of Biological Chemistry, 1993;268(32):24481). The k-DNA decatenation assay was used. Briefly, reactions were performed in buffer R (40 mM Tris-HCl (pH 7.5),6 mM MgCl2, 10 mM DTT, 100 mM potassium glutamate, 40 μM ATP, 50 μg/mL bovine serum albumin, 10 mM NaCl). Two-tenths microgram of kinetoplast DNA (k-DNA; TopoGen, Columbus, Ohio) was incubated with 5 ng of E. coli Topoisomerase IV in the presence or absence of test compounds for 10 minutes at 37° C. Subsequently, one-tenth volume of 10×gel loading buffer (0.3% bromophenol blue, 16% Ficoll, 10 mM Na2HPO4) was added, and samples were loaded onto horizontal 0.8% agarose gels prepared with TBE buffer and containing 0.05 μg/mL of ethidium bromide. Electrophoresis was at 70 V for 2 to 4 hours. Gels were then examined by exposure to UV light. The concentration of drug inhibiting 50% of the decantenating activity of Topoisomerase IV is given as an IC50 and recorded in Table 2.

Setting [2] is: supercoiling of relaxed pBR322, 30 minutes at 37° C., read-out: Gyrase IC50.
Where [3] appears, read: k-DNA decatenation, 10 minutes at 37° C., read-out: DNA TopIV IC50.

On to `CCn1c(=O)n(O)c(=O)c2cc(F)c(N3CCOCC3)cc21` [Example 3, 1-Ethyl-6-fluoro-3-hydroxy-7-morpholin-4-yl-1H-quinazoline-2,4-dione], for which the MIC in the series on B. subtilis RB1 was 8 µg/mL (≈ 25.9 µM); in the series with E. coli B90, 4 µg/mL (≈ 12.9 µM); with E. coli MC4100 it was above 64 µg/mL; in the series with E. coli Tol C, 2 µg/mL (≈ 6.47 µM); with S. aureus 29213, above 64 µg/mL; with S. pyogenes C203, above 64 µg/mL. Further, the “50% Cytotoxic Conc. in CHO Cells” value in series [1] was 176 µg/mL.
As to `CCn1c(=O)n(O)c(=O)c2cc(F)c(N3CCC(C)(CN)C3)cc21.Cl` (stereo not shown) [Example 9, 7-(3-Aminomethyl-3-methyl-pyrrolidin-1-yl)-1-ethyl-6-fluoro-3-hydroxy-1H-quinazoline-2,4-dione, hydrochloride], the MIC is 16 µg/mL in the series on B. subtilis RB1; 4 µg/mL in the series on E. coli B90; 16 µg/mL in the series on E. coli MC4100; 2 µg/mL with E. coli Tol C; 16 µg/mL in the series with S. aureus 29213; 8 µg/mL with S. pyogenes C203. Further, the negative-log IC50 (pIC50) was 4.81 on E. coli gyrase and below 4.00 on E. coli Topoisomerase IV.
`O=c1c2cc(F)c(N3CCCC3)cc2n(C2CC2)c(=O)n1O` [Example 38, 1-Cyclopropyl-6-fluoro-3-hydroxy-7-(pyrrolidin-1-yl)-1H-quinazoline-2,4-dione]: the MIC in the series with B. subtilis RB1 was 0.25 µg/mL (≈ 0.819 µM); in the series on E. coli B90, 0.1 µg/mL (≈ 0.328 µM); in the series on E. coli MC4100, 8 µg/mL (≈ 26.2 µM); with E. coli Tol C it was 0.1 µg/mL (≈ 0.328 µM); in the series with S. aureus 29213, 1 µg/mL (≈ 3.28 µM); with S. pyogenes C203, 16 µg/mL (≈ 52.4 µM). The pIC50 is 5.18 at E. coli gyrase (setting [2]) and 4.24 at E. coli Topoisomerase IV (setting [3]).
For `NC1CCN(c2cc3c(cc2F)c(=O)n(O)c(=O)n3C2CC2)C1` (stereo not shown) [Example 39, 7-(3-Amino-pyrrolidin-1-yl)-1-cyclopropyl-6-fluoro-3-hydroxy-1H-quinazoline-2,4-dione], the MIC in the series on B. subtilis RB1 was found to be 2 µg/mL (≈ 6.24 µM); with E. coli B90 it was 0.3 µg/mL (≈ 0.937 µM); with E. coli MC4100, 1 µg/mL (≈ 3.12 µM); in the series on E. coli Tol C, 0.25 µg/mL (≈ 0.78 µM); in the series with S. aureus 29213, 32 µg/mL (≈ 99.9 µM); with S. pyogenes C203, 4 µg/mL (≈ 12.5 µM). Moreover, the results for the pIC50 on E. coli gyrase (setting [2]) and on E. coli Topoisomerase IV (setting [3]) were 5.62 and 5.05, respectively.
